From publication PMC4820820, “CETSA screening identifies known and novel thymidylate synthase inhibitors and slow intracellular activation of 5-fluorouracil” (Nature Communications, 2016)

target: T1, human thymidylate synthase (TS) (Homo sapiens, UniProt P04818); experiment: CETSA primary screen / single-concentration retest, AlphaScreen, live K562 cells; format: cell-based; conditions: 50 μM compound, 2 h preincubation, 50 °C; 0% = DMSO, 100% = 100 nM raltitrexed
T1 construct: screening in live, non-engineered cells expressing thymidylate synthase; endogenous in cells; host or cells: K562 (human myelogenous leukemia) cells
Procedure: Compounds were placed in columns 1–22. […] At the day of the experiment the plates were allowed to thaw for 30 min followed by a brief centrifugation step (1,000 × g for 1 min) prior to removal of the seal. The compounds were then diluted with 20 μl supplemented cell culture medium using a Multidrop Combi reagent dispenser (Thermo Scientific). Finally 5 μl of the diluted compounds were transferred to a 384 well hardshell PCR plate (HSR480, BIORAD) using a Bravo liquid handling platform equipped with a 384-well head (Agilent). […] The final concentration of DMSO in the assay was 0.5% in all samples.
The screen procedure started with the addition of 5 μl of a suspension of K562 cells at a density of 10 million cells per ml to all wells of a 384 well hardshell PCR plate (HSR480, BIORAD) using an electronic multichannel pipette (Biohit). […] For the time-course experiments the incubation times were altered to include also 10 min, 30 min and 6 h. […] After the incubation step the plates were transiently heated at 50 °C for 3 min followed by a controlled cooling to 20 °C for 1 min using a real-time PCR machine (LightCycler480 system, Roche). Plate handling was then as described above for the thermal aggregation experiments. The data were analyzed using microsoft excel and GraphPad Prism 6.
A calculation of the average and standard error of means for each set of controls also allowed an illustration of how these responses varied over the 32 screening plates. The Z′ factor[38] is commonly used as a measure of how well the assay separates between the controls and this was calculated as described based on the calculated averages and standard deviations of the controls on a per plate basis. For the Tagg shift and the […] experiments the data were analyzed in GraphPad Prism using the Boltzmann sigmoid equation and the saturation binding curve (rectangular hyperbola; binding isotherm) function, respectively. As already discussed[14] these methods make use of equilibrium models for data analysis although the methodology depends on the irreversible aggregation of denatured material. For this reason we refer to the observed responses as apparent and isothermal dose-response fingerprints and are careful with any quantitative interpretations, being well aware of their dependency on experimental conditions. Experiments are on-going to address the quantitative interpretation of CETSA data.

T1 sequence (P04818 2-313 limits assumed): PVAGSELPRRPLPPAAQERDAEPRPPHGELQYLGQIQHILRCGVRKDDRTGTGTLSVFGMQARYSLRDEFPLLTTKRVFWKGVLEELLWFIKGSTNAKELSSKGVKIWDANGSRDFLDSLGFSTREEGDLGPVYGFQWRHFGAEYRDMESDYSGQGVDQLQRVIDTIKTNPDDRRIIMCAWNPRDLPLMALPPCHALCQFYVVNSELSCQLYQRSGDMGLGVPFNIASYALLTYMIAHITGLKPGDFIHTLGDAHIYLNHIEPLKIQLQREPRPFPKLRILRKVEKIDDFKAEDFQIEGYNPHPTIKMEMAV

`Cc1cn(C2CC(O)C(CO)O2)c(=O)[nH]c1=O` (stereo not drawn) [CBK011998] and `Cc1cn([C@H]2C[C@@H](O)[C@@H](CI)O2)c(=O)[nH]c1=O` [CBK201197] are the same in “% stabilization in screen” value: -1% for the first, -1% for the second.

First: C[CH2][Hg][S]c1ccccc1C(=O)[O-].[Na+] [CBK200591N, Thimerosal, reference compound]
Second: Cc1cn(C2CC(O)C(CNC(=O)C(F)(F)F)O2)c(=O)[nH]c1=O (stereo not drawn) [CBK201200]
The “% stabilization in screen” value of the first is higher: 115% for the first, 0% for the second.

Compared with `COC1C(O)C(CO)OC1n1cc(F)c(=S)[nH]c1=O` (stereo not drawn) [CBK201168], `O=c1[nH]c(=O)n([C@@H]2O[C@H](CO)[C@H](O)C2O)cc1Br` (stereo partly drawn) [CBK201180] is lower in “% stabilization in screen” value: 2% for the first, -1% for the second.

First: O=C(O)/C=C/c1cn([C@H]2C[C@@H](O)[C@@H](CO)O2)c(=O)[nH]c1=O [CBK201174]
Second: O=C(/C=C/c1cn([C@H]2C[C@@H](O)[C@@H](CO)O2)c(=O)[nH]c1=O)ON1C(=O)CCC1=O [CBK201188]
The “% stabilization in screen” value of the first is higher: 17% for the first, 16% for the second.

Compared with `C#Cc1cn([C@@H]2O[C@H](CO)[C@H](O)C2O)c(=O)[nH]c1=O` (stereo partly drawn) [CBK201179], `O=c1ncccn1[C@@H]1O[C@H](CO)[C@H](O)C1O` (stereo partly drawn) [CBK201195] is higher in “% stabilization in screen” value: 20% for the first, 22% for the second.

Going from `O=C(/C=C/c1cn(C2CC(O)C(CO)O2)c(=O)[nH]c1=O)NCCNC(=O)C(F)(F)F` (stereo not drawn) [CBK201214] to `O=C(/C=C/c1cn(C2OC(CO)C(O)C2O)c(=O)[nH]c1=O)NCCCCCCNC(=O)C(F)(F)F` (stereo not drawn) [CBK201231], the “% stabilization in screen” value falls from 9% to -1%.

`Nc1nc(=O)n([C@H]2C[C@@H](O)[C@@H](CO)O2)cc1I` [CBK201226] was tested, and the “% stabilization in screen” value was 7%.

same assay, conditions: 6 h preincubation, K562 cells

`COC1C(O)C(CO)OC1n1cc(F)c(=S)[nH]c1=O` (stereo not drawn) [CBK201168] was tested, and the “% stabilization at retest (6h preincubation)” value was 5%.

same assay, conditions: K562, 2 h, 50 μM compound, 2 h preincubation, 50 °C; 0% = DMSO, 100% = 100 nM raltitrexed; read-out: % stabilization in screen

Compared with `c1cnc(N2CCN(Cc3ccc4c(c3)OCO4)CC2)nc1` [CBK041124C, Piribedil, reference compound], `CN1CCN(c2c(F)cc3c(=O)c(C(=O)O)cn(CCF)c3c2F)CC1` [CBK201030, Fleroxacin, reference compound] is higher in % stabilization in screen at 50 µM: 17% for the first, 66% for the second.

First: Clc1ccc(C(Cn2ccnc2)OCc2csc3c(Cl)cccc23)c(Cl)c1 (stereo not drawn) [CBK200917G, Sertaconazole nitrate, reference compound]
Second: CC(=O)OCC(=O)[C@@]12OC3(CCCC3)O[C@@H]1C[C@H]1[C@@H]3CCC4=CC(=O)C=C[C@]4(C)[C@@]3(F)[C@@H](O)C[C@@]12C [CBK200950, Amcinonid, reference compound]
The % stabilization in screen at 50 µM of the first is higher: 66% for the first, 56% for the second.

same assay, conditions: K562, 2 h; read-out: % stabilization in screen

Going from `Nc1nc(N)c2nc(-c3ccccc3)c(N)nc2n1` [CBK012158, Triamterene, reference compound] to `COc1ccccc1N1CCN(CC(O)COc2cccc3ccccc23)CC1` (stereo not drawn) [CBK041301C, Naftopidil, reference compound], the % stabilization in screen at 50 µM falls from 78% to 59%.

Going from `CC(C)NCC(O)c1ccc(NS(C)(=O)=O)cc1` (stereo not drawn) [CBK012353C, Sotalol, reference compound] to `Cc1ccc(-c2cc(C(F)(F)F)nn2-c2ccc(S(N)(=O)=O)cc2)cc1` [CBK041793, Celecoxib, reference compound], the % stabilization in screen at 50 µM rises from 14% to 61%.

First: Nc1ncnc2c1nc(Br)n2[C@@H]1O[C@H](CO)[C@@H](O)[C@H]1O [CBK015742, 8-bromoadenosine]
Second: Nc1ncn([C@@H]2O[C@H](CO)[C@@H](O)[C@H]2O)c(=O)n1 [CBK200768, 5-Azacytidine, reference compound]
The % stabilization in screen at 50 µM of the first is lower: 20% for the first, 32% for the second.

Going from `Cc1ccc2c(c1)c1c3n2CCNC3CCC1` (stereo not drawn) [CBK200931G, Pirlindole, reference compound] to `C=CCOc1nc2c(=O)[nH]c(NC(=O)C(C)C)nc2n1[C@H]1C[C@H](O)[C@@H](CO)O1` [CBK201216, 8-allyloxy-N2-isobutyryl-2′-deoxyguanosine], the % stabilization in screen at 50 µM rises from 23% to 30%.

For `Nc1ccn([C@@H]2O[C@H](CO)[C@@H](O)C2(F)F)c(=O)n1` [CBK200978, gemcitabine, reference compound], the % stabilization in screen at 50 µM was 0%.
